Source: patent US6333311A, “Useful properties of human lactoferrin and variants thereof” (Pharming, priority 1998, dated 2001)

Columns and labels:
[1] = biological target: T1, human lactoferrin, natural hLF (purified from human milk, 3.5% saturated with iron) (Homo sapiens, UniProt P02788); test: Competitive inhibition of hLF binding to solid-phase lipid A, competitor natural hLF; details: concentration of unlabelled natural hLF giving 50% inhibition of the response of 12.5 nM biotinylated hLF on immobilized lipid A; mean ± SD of at least 4 experiments
T1 construct: Human LF was purified from fresh human milk by cation-exchange chromatography; from tissue; host or cells: fresh human milk

[2] = biological target: T2, human lactoferrin, iron-saturated hLF (Homo sapiens, UniProt P02788); test: Competitive inhibition of hLF binding to solid-phase lipid A, competitor iron-saturated hLF; details: concentration of unlabelled iron-saturated hLF giving 50% inhibition of the response of 12.5 nM biotinylated hLF on immobilized lipid A; mean ± SD of at least 4 experiments
T2 construct: Human LF was purified from fresh human milk by cation-exchange chromatography; from tissue; host or cells: fresh human milk

human transferrin (hTF) = human transferrin (hTF) (Homo sapiens, UniProt P02787); test: Competitive inhibition of hLF binding to solid-phase lipid A, competitor hTF; details: hTF as competitor of 12.5 nM biotinylated hLF binding to immobilized lipid A
Chain of human transferrin (hTF) (P02787 20-698): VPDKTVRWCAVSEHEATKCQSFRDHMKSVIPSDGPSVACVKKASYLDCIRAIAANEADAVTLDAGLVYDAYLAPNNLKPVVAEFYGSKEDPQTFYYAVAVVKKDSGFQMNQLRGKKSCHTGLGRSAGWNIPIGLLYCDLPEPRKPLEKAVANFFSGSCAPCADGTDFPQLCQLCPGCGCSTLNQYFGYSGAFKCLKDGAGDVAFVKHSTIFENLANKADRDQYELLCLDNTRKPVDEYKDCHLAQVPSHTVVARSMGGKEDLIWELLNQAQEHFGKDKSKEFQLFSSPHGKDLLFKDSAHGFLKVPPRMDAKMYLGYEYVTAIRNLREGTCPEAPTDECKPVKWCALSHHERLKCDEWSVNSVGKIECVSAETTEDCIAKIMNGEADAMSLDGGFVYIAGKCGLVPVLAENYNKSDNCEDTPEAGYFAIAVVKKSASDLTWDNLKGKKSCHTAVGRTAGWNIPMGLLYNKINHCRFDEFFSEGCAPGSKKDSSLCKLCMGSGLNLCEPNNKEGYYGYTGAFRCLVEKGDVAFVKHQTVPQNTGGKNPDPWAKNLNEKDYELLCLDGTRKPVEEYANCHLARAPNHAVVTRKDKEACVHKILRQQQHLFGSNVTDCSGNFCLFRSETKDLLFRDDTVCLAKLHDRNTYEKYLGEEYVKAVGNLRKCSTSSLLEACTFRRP

T1 sequence (P02788 with tags, fused parts or gaps limits assumed): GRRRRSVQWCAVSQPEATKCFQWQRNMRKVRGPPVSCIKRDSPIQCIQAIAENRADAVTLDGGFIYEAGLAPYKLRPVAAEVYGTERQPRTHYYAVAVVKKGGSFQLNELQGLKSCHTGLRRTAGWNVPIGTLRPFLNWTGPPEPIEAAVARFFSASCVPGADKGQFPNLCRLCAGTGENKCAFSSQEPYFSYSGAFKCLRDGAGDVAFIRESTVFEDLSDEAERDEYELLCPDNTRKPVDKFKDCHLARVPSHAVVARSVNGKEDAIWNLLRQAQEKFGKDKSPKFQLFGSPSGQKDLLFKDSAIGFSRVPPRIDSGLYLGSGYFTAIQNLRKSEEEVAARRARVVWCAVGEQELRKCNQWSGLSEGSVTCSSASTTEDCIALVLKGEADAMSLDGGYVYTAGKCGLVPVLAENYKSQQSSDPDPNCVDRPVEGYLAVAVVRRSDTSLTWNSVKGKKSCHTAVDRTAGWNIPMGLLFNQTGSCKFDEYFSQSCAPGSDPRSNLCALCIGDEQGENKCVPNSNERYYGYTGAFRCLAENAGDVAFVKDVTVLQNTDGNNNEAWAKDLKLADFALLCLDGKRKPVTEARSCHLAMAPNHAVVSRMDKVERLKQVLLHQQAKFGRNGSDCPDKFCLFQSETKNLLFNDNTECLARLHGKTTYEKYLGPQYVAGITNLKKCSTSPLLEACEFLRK
T2 sequence (P02788 with tags, fused parts or gaps limits assumed): as above

In the case of Lipid A, the IC50 [1] is reported as 1.7 ± 0.5 nM, the IC50 [2] is reported as 1.3 ± 0.4 nM and the “IC50 Competitor, hTF” value (human transferrin (hTF)) is reported as “no competition”.
